Data as given in US9475814B2, “Chiral N-acyl-5,6,7(8-substituted)-tetrahydro-[1,2,4]triazolo[4,3-a]pyrazines as selective NK-3 receptor antagonists, pharmaceutical composition, methods for use in NK-3 receptor mediated disorders and chiral synthesis thereof” (Euroscreen S.A., priority 2011, dated 2016).
pIC50, pKi: −log10 of the molar value. Where two headings read alike, the source gives them in different places.

How the values were obtained:
[1] = test system: circulating levels of luteinizing hormone (LH); test: Castrated male rat model, circulating luteinizing hormone (LH); format: in vivo; conditions: single intravenous 10 mg/kg dose, castrated male Sprague-Dawley rats, 1 hour after dosing
Description: Castrated Male Rat Model to Assess the Effect of Compound of Invention on Circulating Levels of Luteinizing Hormone (LH).
In humans and rodents, castration is well-precedented to permit heightened, persistent GnRH signaling and consequent elevation of circulating LH. Thus, a castrated rat model is used to provide a broad index for measurement of LH inhibition as a marker of test compound inhibition of the GnRH signaling pathway.
Castrated adult male Sprague-Dawley (SD) rats (150-175 g) were purchased from Janvier (St Berthevin, France). […] The animals were allowed 2 weeks of postoperative recovery prior to study. Animals were handled on a daily basis. Standard diet and tap water were provided ad libitum. Animal cage litters were changed once a week. On the study day, animals were acclimated to the procedure room for a period of one hour prior to the initiation of the experiment.
Compounds of the invention were formulated as apyrogen water with 90 g/L (2-Hydroxypropyl)-β-CycloDextrin.
After basal sampling (T0) a single dose of compounds of the invention or vehicle was administrated intravenously to rats. Blood was then collected at 60 min post dosing. Blood samples were obtained via tail vein bleed, drawn into EDTA-containing tubes and centrifuged immediately. […] Serum LH levels were determined using radioimmunoassay kit from RIAZEN—Rat LH, Zentech (Liège, Belgium). […]

[2] = test system: circulating levels of testosterone; test: Gonad-intact adult male rat, circulating testosterone; format: in vivo; conditions: single intravenous 50 mg/kg dose, gonad-intact male Sprague-Dawley rats, over the 210 minute test period (AUC)
human NK1 receptor = human NK1 receptor (Homo sapiens (Human), UniProt P25103); test: Human NK1 [3H] substance P binding assay (selectivity); conditions: read-out: NK1 Ki; CHO membranes, 2 nM [3H] substance P
Sequence of human NK1 receptor (P25103 whole entry): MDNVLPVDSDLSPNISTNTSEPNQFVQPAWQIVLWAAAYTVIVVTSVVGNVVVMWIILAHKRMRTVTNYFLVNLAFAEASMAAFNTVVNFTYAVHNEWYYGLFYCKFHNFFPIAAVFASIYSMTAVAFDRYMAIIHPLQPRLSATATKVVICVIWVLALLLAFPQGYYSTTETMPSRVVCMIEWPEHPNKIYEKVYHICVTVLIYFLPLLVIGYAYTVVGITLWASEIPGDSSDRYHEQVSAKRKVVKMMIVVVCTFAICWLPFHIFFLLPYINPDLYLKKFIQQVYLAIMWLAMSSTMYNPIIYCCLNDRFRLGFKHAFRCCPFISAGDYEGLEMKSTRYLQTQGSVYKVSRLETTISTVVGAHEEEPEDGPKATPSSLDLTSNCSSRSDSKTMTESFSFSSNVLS

human NK2 receptor = human NK2 receptor (Homo sapiens (Human), UniProt P21452); test: Human NK2 [125I]-Neurokinin A binding assay (selectivity); conditions: read-out: NK2 Ki; CHO membranes, 0.1 nM [125I]-Neurokinin A
Sequence of human NK2 receptor (P21452 whole entry): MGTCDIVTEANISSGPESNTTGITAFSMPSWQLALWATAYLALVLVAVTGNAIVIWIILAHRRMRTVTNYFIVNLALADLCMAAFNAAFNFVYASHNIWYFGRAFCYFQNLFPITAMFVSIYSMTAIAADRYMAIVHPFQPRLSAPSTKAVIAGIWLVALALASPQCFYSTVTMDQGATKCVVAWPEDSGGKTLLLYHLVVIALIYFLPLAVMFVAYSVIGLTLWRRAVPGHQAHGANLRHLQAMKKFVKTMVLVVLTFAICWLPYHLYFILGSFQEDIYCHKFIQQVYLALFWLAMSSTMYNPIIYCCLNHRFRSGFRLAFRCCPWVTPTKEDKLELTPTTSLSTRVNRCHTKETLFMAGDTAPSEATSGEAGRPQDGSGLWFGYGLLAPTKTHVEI

hERG channel = hERG channel (Homo sapiens (Human), UniProt Q12809); test: hERG inhibition assay (manual patch-clamp, HEK 293 cells)
Sequence of hERG channel (Q12809 whole entry): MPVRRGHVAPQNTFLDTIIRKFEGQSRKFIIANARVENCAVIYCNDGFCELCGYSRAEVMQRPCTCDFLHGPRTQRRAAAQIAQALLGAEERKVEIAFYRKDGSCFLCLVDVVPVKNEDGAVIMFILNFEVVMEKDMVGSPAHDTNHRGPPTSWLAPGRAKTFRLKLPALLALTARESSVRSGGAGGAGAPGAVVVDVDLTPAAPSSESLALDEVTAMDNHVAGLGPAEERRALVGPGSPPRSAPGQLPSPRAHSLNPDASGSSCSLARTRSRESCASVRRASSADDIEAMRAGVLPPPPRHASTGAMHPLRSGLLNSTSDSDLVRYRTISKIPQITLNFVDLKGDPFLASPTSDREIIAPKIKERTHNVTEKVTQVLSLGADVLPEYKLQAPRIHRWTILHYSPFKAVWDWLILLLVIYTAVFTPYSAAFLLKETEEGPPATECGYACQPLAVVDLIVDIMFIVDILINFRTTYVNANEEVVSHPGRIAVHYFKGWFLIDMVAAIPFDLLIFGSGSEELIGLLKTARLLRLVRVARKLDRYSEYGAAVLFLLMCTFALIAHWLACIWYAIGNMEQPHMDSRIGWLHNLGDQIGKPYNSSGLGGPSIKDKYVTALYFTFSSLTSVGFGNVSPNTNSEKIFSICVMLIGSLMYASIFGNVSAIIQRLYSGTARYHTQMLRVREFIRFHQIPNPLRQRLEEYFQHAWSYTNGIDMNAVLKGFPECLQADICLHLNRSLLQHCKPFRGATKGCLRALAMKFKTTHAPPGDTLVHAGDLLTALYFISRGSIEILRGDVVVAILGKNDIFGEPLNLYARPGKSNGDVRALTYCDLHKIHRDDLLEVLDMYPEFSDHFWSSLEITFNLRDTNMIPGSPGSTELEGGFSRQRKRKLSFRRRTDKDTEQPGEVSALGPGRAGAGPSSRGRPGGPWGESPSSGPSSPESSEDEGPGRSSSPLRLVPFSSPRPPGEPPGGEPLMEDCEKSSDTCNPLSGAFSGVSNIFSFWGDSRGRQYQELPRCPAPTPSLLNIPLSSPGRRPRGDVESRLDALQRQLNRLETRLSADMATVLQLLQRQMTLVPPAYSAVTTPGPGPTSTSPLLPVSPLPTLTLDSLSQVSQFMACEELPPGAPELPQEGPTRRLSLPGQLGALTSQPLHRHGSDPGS

human NK-3 receptor [3] = target: T1, human NK-3 receptor (Homo sapiens (Human), UniProt P29371); test: 3H-SB222200 binding competition assay with human NK-3 receptor
T1 sequence (P29371 whole entry): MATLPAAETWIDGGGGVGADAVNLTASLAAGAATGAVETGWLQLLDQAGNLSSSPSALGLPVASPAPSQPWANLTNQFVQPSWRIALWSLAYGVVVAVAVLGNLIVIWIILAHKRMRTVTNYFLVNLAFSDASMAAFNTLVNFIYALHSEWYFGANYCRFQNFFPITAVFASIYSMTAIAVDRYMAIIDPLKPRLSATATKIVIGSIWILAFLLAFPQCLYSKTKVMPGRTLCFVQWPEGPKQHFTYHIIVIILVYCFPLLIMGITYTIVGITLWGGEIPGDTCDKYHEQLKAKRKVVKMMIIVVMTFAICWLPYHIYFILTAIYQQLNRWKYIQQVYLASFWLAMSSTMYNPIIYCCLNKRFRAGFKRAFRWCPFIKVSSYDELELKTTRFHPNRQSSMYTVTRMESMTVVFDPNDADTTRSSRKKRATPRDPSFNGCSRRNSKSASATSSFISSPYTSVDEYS
Description: ^3H-SB222200 Binding Competition Assay with Human NK-3 Receptor
The membranes were incubated with 5 nM ^3H-SB222200(ARC) in a HEPES 25 mM/NaCl 0.1M/CaCl2 1 mM/MgCl2 5 Mm/BSA 0.5%/Saponin 10 μg/ml buffer at pH 7.4 and various concentrations of compounds of the invention. The amount of ^3H-SB222200 bound to the receptor was determined after filtration by the quantification of membrane associated radioactivity using the TopCount-NXT reader (Packard).

human NK-3 receptor [4] = target: T1, human NK-3 receptor; test: Aequorin functional assay with human NK-3 receptor (antagonist testing vs NKA); format: cell-based; conditions: inhibition of NKA (3 nM, EC80) response, CHO cells expressing human NK3 receptor and apoaequorin
[5] = Table 6, membranes of CHO cells expressing human NK3 receptor, 5 nM 3H-SB222200, read-out: Ki
[6] = Table 7, human NK-3 receptor, read-out: NK3 Ki

SMILES: Cc1nc(-c2nnc3n2CCN(C(=O)c2ccc(-c4cccs4)cc2)[C@@H]3C)cs1 [Compound 1, (R)-(8-methyl-3-(2-methylthiazol-4-yl)-5,6-dihydro-[1,2,4]triazolo[4,3-a]pyrazin-7(8H)-yl) (4-(thiophen-2-yl)phenyl)methanone]
- circulating LH levels [1]: significantly suppressed circulating LH levels
- plasma testosterone levels [2]: significantly suppressed plasma testosterone levels
- pKi (human NK1 receptor): 4.90
- pKi (human NK2 receptor): 4.85
- pIC50 (hERG channel): < 4.52

SMILES: Cc1csc(-c2nnc3n2CCN(C(=O)c2ccc(-c4cccs4)cc2)[C@@H]3C)n1 [Compound 19, (R)-(8-methyl-3-(4-methylthiazol-2-yl)-5,6-dihydro-[1,2,4]triazolo[4,3-a]pyrazin-7(8H)-yl)(4-(thiophen-2-yl)phenyl)methanone]
- circulating LH levels [1]: significantly suppressed circulating LH levels
- pKi (human NK-3 receptor [3]; [5]): 8.22
- pIC50 (human NK-3 receptor [4]): 8.10

SMILES: Cc1nc(-c2nnc3n2CCN(C(=O)c2ccc(-c4cccs4)cc2)[C@@H]3C)co1 [Compound 11, (R)-(8-methyl-3-(2-methyloxazol-4-yl)-5,6-dihydro-[1,2,4]triazolo[4,3-a]pyrazin-7(8H)-yl)(4-(thiophen-2-yl)phenyl)methanone]
- pKi (human NK-3 receptor [3]; [5]): 7.36
- pKi (human NK-3 receptor [3]; [6]): 7.36
- pIC50 (human NK-3 receptor [4]): 7.47
- pKi (human NK1 receptor): < 5.00
- pKi (human NK2 receptor): < 5.00
- pIC50 (hERG channel): < 4.52

SMILES: Cc1nc(-c2nnc3n2CCN(C(=O)c2ccc(-c4cccs4)cc2)C3)cs1 [Compound 3, (3-(2-methylthiazol-4-yl)-5,6-dihydro-[1,2,4]triazolo[4,3-a]pyrazin-7(8H)-yl)(4-(thiophen-2-yl)phenyl)methanone]
- pKi (human NK-3 receptor [3]; [5]): 7.08
- pKi (human NK-3 receptor [3]; [6]): 7.08
- pIC50 (human NK-3 receptor [4]): 7.08
- pKi (human NK1 receptor): < 5.00
- pKi (human NK2 receptor): < 5.00
- pIC50 (hERG channel): 4.59
